Data taken from US8772304B2, “Benzimidazole inhibitors of leukotriene production” (Boehringer Ingelheim International GmbH, priority 2010, dated 2014).

Experiments:
[1] = target: recombinant human FLAP protein (Homo sapiens (Human), UniProt P20292); experiment: FLAP binding assay (Scintillation Proximity Assay, displacement of iodinated FLAP inhibitor); settings: displacement of [125I]L-691,831; membranes of sf9 cells expressing recombinant human FLAP; read-out: hFLAP binding IC50
Method: Compounds are assessed for the ability to bind to FLAP in a binding assay that measures compound-specific displacement of an iodinated (^125I) FLAP inhibitor via a Scintillation Proximity Assay format (adapted from S. Charleson et al., Mol. Pharmacol., 1992, 41, 873-879).
Cell pellets produced from sf9 insect cells expressing recombinant human FLAP protein are resuspended in buffer A [15 mM Tris-HCl (pH 7.5), 2 mM MgCl2, 0.3 mM EDTA, 1 mM PMSF]. The cells are lysed with a Dounce homogenizer and the material is centrifuged at 10,000×g for 10 minutes. The supernatant is then collected and centrifuged at 100,000×g for 60 minutes. To prepare membrane protein for an assay, an aliquot of the 100,000×g pellet is resuspended in 1 ml of buffer A, Dounce homogenized, and finally subjected to polytron mixing (30 seconds). Membrane protein (25 μl, 5 μg) is mixed with WGA SPA beads (Amersham) and stirred for 1 h. […] (final concentrations: beads, 200 μg/well; protein, 5 μg/well; [^125I] probe, 0 08 nM/well (17 nCi/well). The plates are shaken for 2 h before reading on a Microbeta plate reader. Non-specific binding is determined by the addition of 10 μM cold L-691,831 compound.

[2] = system: synthesis of LTB4 in human whole blood; experiment: human whole blood LTB4 production inhibition assay; type: cell-based; settings: heparinized human whole blood, calcimycin 20 μM stimulation, plasma LTB4; read-out: hWB IC50
Method: Compounds are additionally tested in a human whole blood assay to determine their ability to inhibit the synthesis of LTB4 in a cellular system. Compounds are combined with heparinized human whole blood and incubated for 15 minutes at 37° C. Calcimycin (20 μM final, prepared in phosphate-buffered saline, pH 7.4) is then added and the mixture is incubated for another 30 minutes at 37° C. The samples are centrifuged for 5 min at low speed (1500×g) and the plasma layer is removed. Plasma LTB4 concentrations are then measured using an antibody-based homogenous time-resolved fluorescence method (CisBio, Bedford, Mass.).

Chain of recombinant human FLAP protein (P20292 whole entry): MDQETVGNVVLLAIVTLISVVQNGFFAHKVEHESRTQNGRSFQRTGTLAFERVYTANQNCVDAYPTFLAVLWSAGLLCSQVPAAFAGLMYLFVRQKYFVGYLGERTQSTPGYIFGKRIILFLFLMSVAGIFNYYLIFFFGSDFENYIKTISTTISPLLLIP

| IC50 [1] [nM] | IC50 [2] [nM] | Compound |
| --- | --- | --- |
| 4 | 81 | CC(C)(C)n1c(-c2cc(Br)cnc2-n2cncn2)nc2cc(-c3cnc(N)nc3)ccc21 [Example 23, 5-[2-(5-Bromo-2-1,2,4-triazol-1-yl-pyridin-3-yl)-1-tert-butyl-1H-benzimidazol-5-yl]-pyrimidin-2-ylamine] |
| 34 |  | CCOc1ncccc1-c1nc2cc(-c3cnc(N)nc3)ccc2n1C(C)(C)C [Example 33, 5-[1-tert-Butyl-2-(2-ethoxy-pyridin-3-yl)-1H-benzimidazol-5-yl]-pyrimidin-2-ylamine] |
| 138 | 422 | CNC(=O)c1ccc(C#N)nc1-c1nc2cc(-c3cnc(N)nc3)ccc2n1C(C)(C)C [Example 10, 2-[5-(2-Amino-pyrimidin-5-yl)-1-tert-butyl-1H-benzimidazol-2-yl]-6-cyano-N-methyl-nicotinamide] |
| 620 | 1700 | CNC(=O)c1cccnc1-c1nc2cc(-c3cnc(N)nc3)ccc2n1C(C)(C)C [Example 8, 2-[5-(2-Amino-pyrimidin-5-yl)-1-tert-butyl-1H-benzimidazol-2-yl]-N-methyl-nicotinamide] |
| 450 | 449 | CC(C)(C)n1c(-c2ccncc2)nc2cc(-c3cnc(N)nc3)ccc21 [Example 18, 5-(1-tert-Butyl-2-pyridin-4-yl-1H-benzimidazol-5-yl)-pyrimidin-2-ylamine] |
| 23 | 242 | Cc1ncnn1-c1ncccc1-c1nc2cc(-c3cnc(N)nc3)ccc2n1C(C)(C)C [Example 24, 5-{1-tert-Butyl-2-[2-(5-methyl-1,2,4-triazol-1-yl)-pyridin-3-yl]-1H-benzimidazol-5-yl}-pyrimidin-2-ylamine] |
| 870 |  | CC(C)(C)n1c(-c2cccc(F)n2)nc2cc(-c3cnc(NCc4cccc(F)n4)nc3)ccc21 [Example 15, {5-[1-tert-Butyl-2-(6-fluoro-pyridin-2-yl)-1H-benzimidazol-5-yl]-pyrimidin-2-yl}-(6-fluoro-pyridin-2-ylmethyl)-amine] |
| 29 | 256 | Cc1ncn(-c2ccc(C#N)nc2-c2nc3cc(-c4cnc(N)nc4)ccc3n2C2(C)CCC2)n1 [Example 5, 6-[5-(2-Amino-pyrimidin-5-yl)-1-(1-methyl-cyclobutyl)-1H-benzimidazol-2-yl]-5-(3-methyl-1,2,4-triazol-1-yl)-pyridine-2-carbonitrile] |
| 4.2 | 36 | Cc1ncn(-c2ccc(C#N)nc2-c2nc3cc(-c4cnc(N)nc4)ccc3n2C(C)(C)C)n1 [Example 2, 6-[5-(2-Amino-pyrimidin-5-yl)-1-tert-butyl-1H-benzimidazol-2-yl]-5-(3-methyl-1,2,4-triazol-1-yl)-pyridine-2-carbonitrile] |
| 220 |  | COc1ncccc1-c1nc2cc(-c3cnc(N)nc3)ccc2n1C(C)(C)C [Example 32, 5-[1-tert-Butyl-2-(2-methoxy-pyridin-3-yl)-1H-benzimidazol-5-yl]-pyrimidin-2-ylamine] |
| 12 | 278 | Cc1ncn(-c2ncccc2-c2nc3cc(-c4cnc(N)nc4)ccc3n2C(C)(C)C)n1 [Example 25, 5-{1-tert-Butyl-2-[2-(3-methyl-1,2,4-triazol-1-yl)-pyridin-3-yl]-1H-benzimidazol-5-yl}-pyrimidin-2-ylamine] |
| 960 |  | COc1cccnc1-c1nc2cc(-c3cnc(N)nc3)ccc2n1C(C)(C)C [Example 16, 5-[1-tert-Butyl-2-(3-methoxy-pyridin-2-yl)-1H-benzimidazol-5-yl]-pyrimidin-2-ylamine] |
| 13 | 140 | CC(C)(C)n1c(-c2nc(C3CC3)ccc2-n2cncn2)nc2cc(-c3cnc(N)nc3)ccc21 [Example 4, 5-[1-tert-Butyl-2-(6-cyclopropyl-3-1,2,4-triazol-1-yl-pyridin-2-yl)-1H-benzimidazol-5-yl]-pyrimidin-2-ylamine] |
| 19 | 447 | CC(C)(C)n1c(-c2cccnc2-n2cncn2)nc2cc(-c3cnc(N)nc3)ccc21 [Example 20, 5-[1-tert-Butyl-2-(2-1,2,4-triazol-1-yl-pyridin-3-yl)-1H-benzimidazol-5-yl]-pyrimidin-2-ylamine] |
| 10 | 75 | CC(C)(C)n1c(-c2cc(C#N)cnc2-n2cncn2)nc2cc(-c3cnc(N)nc3)ccc21 [Example 26, 5-[5-(2-Amino-pyrimidin-5-yl)-1-tert-butyl-1H-benzimidazol-2-yl]-6-1,2,4-triazol-1-yl-nicotinonitrile] |
| 23 | 667 | CCC(C)(C)n1c(-c2cc(Br)cnc2-n2cncn2)nc2cc(-c3cnc(N)nc3)ccc21 [Example 27, 5-[2-(5-Bromo-2-1,2,4-triazol-1-yl-pyridin-3-yl)-1-(1,1-dimethyl-propyl)-1H-benzimidazol-5-yl]-pyrimidin-2-ylamine] |
| 5.9 | 89 | Cc1ncnn1-c1ccc(C#N)nc1-c1nc2cc(-c3cnc(N)nc3)ccc2n1C(C)(C)C [Example 3, 6-[5-(2-Amino-pyrimidin-5-yl)-1-tert-butyl-1H-benzimidazol-2-yl]-5-(5-methyl-1,2,4-triazol-1-yl)-pyridine-2-carbonitrile] |
| 46 |  | COc1cccc(-c2nc3cc(-c4cnc(N)nc4)ccc3n2C(C)(C)C)n1 [Example 11, 5-[1-tert-Butyl-2-(6-methoxy-pyridin-2-yl)-1H-benzimidazol-5-yl]-pyrimidin-2-ylamine] |
| 17 | 194 | Cc1ccc(-c2nc3cc(-c4cnc(N)nc4)ccc3n2C(C)(C)C)c(-n2cncn2)n1 [Example 28, 5-[1-tert-Butyl-2-(6-methyl-2-1,2,4-triazol-1-yl-pyridin-3-yl)-1H-benzimidazol-5-yl]-pyrimidin-2-ylamine] |
| 86 | 894 | Cc1ncnn1-c1ccc(C#N)nc1-c1nc2cc(-c3cnc(N)nc3)ccc2n1C1(C)CCC1 [Example 6, 6-[5-(2-Amino-pyrimidin-5-yl)-1-(1-methyl-cyclobutyl)-1H-benzimidazol-2-yl]-5-(5-methyl-1,2,4-triazol-1-yl)-pyridine-2-carbonitrile] |
| 300 |  | COc1cncc(-c2nc3cc(-c4cnc(N)nc4)ccc3n2C(C)(C)C)c1 [Example 29, 5-[1-tert-Butyl-2-(5-methoxy-pyridin-3-yl)-1H-benzimidazol-5-yl]-pyrimidin-2-ylamine] |
| 110 | 387 | COC(=O)c1ccc(C#N)nc1-c1nc2cc(-c3cnc(N)nc3)ccc2n1C(C)(C)C [Example 9, 2-[5-(2-Amino-pyrimidin-5-yl)-1-tert-butyl-1H-benzimidazol-2-yl]-6-cyano-nicotinic acid methyl ester] |
| 180 |  | CC(C)(C)n1c(-c2ccc(N3CCOCC3)nc2)nc2cc(-c3cnc(N)nc3)ccc21 [Example 30, 5-[1-tert-Butyl-2-(6-morpholin-4-yl-pyridin-3-yl)-1H-benzimidazol-5-yl]-pyrimidin-2-ylamine] |
| 58 | 58 | COc1cc(-c2nc3cc(-c4cnc(N)nc4)ccc3n2C(C)(C)C)c(F)cn1 [Example 17, 5-[1-tert-Butyl-2-(5-fluoro-2-methoxy-pyridin-4-yl)-1H-benzimidazol-5-yl]-pyrimidin-2-ylamine] |
| 700 |  | CC(C)(C)n1c(-c2ccccn2)nc2cc(-c3cnc(N)nc3)ccc21 [Example 12, 5-(1-tert-Butyl-2-pyridin-2-yl-1H-benzimidazol-5-yl)-pyrimidin-2-ylamine] |
| 3.2 | 116 | CC(C)(C)n1c(-c2cc(Cl)cnc2-n2cncn2)nc2cc(-c3cnc(N)nc3)ccc21 [Example 22, 5-[1-tert-Butyl-2-(5-chloro-2-1,2,4-triazol-1-yl-pyridin-3-yl)-1H-benzimidazol-5-yl]-pyrimidin-2-ylamine] |
| 7.1 | 30 | CC(C)(C)n1c(-c2nc(C#N)ccc2-n2cncn2)nc2cc(-c3cnc(N)nc3)ccc21 [Example 1, 6-[5-(2-Amino-pyrimidin-5-yl)-1-tert-butyl-1H-benzimidazol-2-yl]-5-1,2,4-triazol-1-yl-pyridine-2-carbonitrile] |
| 542 |  | CC(C)(C)n1c(-c2cccnc2)nc2cc(-c3cnc(N)nc3)ccc21 [Example 31, 5-(1-tert-Butyl-2-pyridin-3-yl-1H-benzimidazol-5-yl)-pyrimidin-2-ylamine] |
| 279 |  | CC(C)(C)n1c(-c2cccc(F)n2)nc2cc(-c3cnc(N)nc3)ccc21 [Example 14, 5-[1-tert-Butyl-2-(6-fluoro-pyridin-2-yl)-1H-benzimidazol-5-yl]-pyrimidin-2-ylamine] |

| Compound | IC50 [1] [nM] | IC50 [2] [nM] |
| --- | --- | --- |
| CC(C)(C)Oc1cccc(-c2nc3cc(-c4cnc(N)nc4)ccc3n2C(C)(C)C)n1 [Example 13, 5-[2-(6-tert-Butoxy-pyridin-2-yl)-1-tert-butyl-1H-benzimidazol-5-yl]-pyrimidin-2-ylamine] | 51 |  |
